According to patent US7674881B2, “Convergent synthesis of proteins by kinetically controlled ligation” (The University of Chicago, priority 2005, dated 2010):
Read-outs that look alike come from different tables or passages of the source.

Columns and labels:
[1] = Solubility of thiol catalysts at pH 7 (Table 3)
[2] = pKa of thiol catalysts (Table 3)

| Compound | pKa (physchem) | Solubility at pH 7 | Solubility at pH 7 [1] | pKa [2] |
| --- | --- | --- | --- | --- |
| Sc1ccccn1 [2-mercaptopyridine] | -1.07 | Soluble |  |  |
| Sc1ncccn1 [2-mercaptopyrimidine] | 2.03 | Very soluble |  |  |
| O=C(O)c1cccc(S)c1 [3-mercaptobenzoic acid] | 5.78 | Very soluble |  |  |
| Oc1cccc(S)c1 [3-mercaptophenol] | 6.5 | Very soluble |  |  |
| Nc1ccc(S)cc1 [4-aminothiophenol] | 8.86 | Very soluble |  |  |
| Sc1ccc(Cl)cc1 [4-chlorothiophenol] |  |  | Sparingly soluble | 6.11 |
| Oc1ccc(S)cc1 [4-mercaptophenol] | 6.8 | Soluble |  |  |
| O=C(O)Cc1ccc(S)cc1 [4-mercaptophenylacetic acid] |  | Very soluble |  |  |
| COc1ccc(S)cc1 [4-methoxythiophenol] | 6.75 | Slightly soluble |  |  |
| Cc1ccc(S)cc1 [4-methylthiophenol] | 6.8 | Sparingly soluble |  |  |
| O=[N+]([O-])c1ccc(S)cc1 [4-nitrothiophenol] |  | Soluble |  |  |
| SCc1ccccc1 [Benzyl mercaptan] |  |  | Sparingly soluble | 9.67 |
| O=S(=O)([O-])CCS.[Na+] [MESNA, sodium 2-mercaptoethanesulfonate] | 9.08 | Very soluble |  |  |
| Sc1ccccc1 [Thiophenol] |  | Slightly soluble |  |  |
